Experimental data as given in patent publication US20210188856A1, “CRYSTAL FORM OF HYDROCHLORIDE OF PYRAZOLOHETEROARYL DERIVATIVE AND PREPARATION METHOD” (JIANGSU HENGRUI MEDICINE CO., LTD., priority 2018, published 2021).

Test: Influencing factors stability (heating, light illumination, high humidity; spread and uncovered, 20 days)
Assay type: physicochemical
Conditions: for Maximum single impurity / Purity / Total impurities: monohydrochloride; for stability under the influencing factor conditions (in words): light illumination
Method: Example 6: the crystal form I of the dihydrochloride salt of the compound represented by formula (I) (example 1) was spread and uncovered, and the steadily of the sample was evaluated under heating (40° C., 60° C.), light illumination (4500 Lux), and high humidity (RH 75%, RH 90%) with a period of 20 days.
Example 10: the crystal form A (example 7) of the monohydrochloride salt of the compound of formula (I) was spread and uncovered, and the stability of the sample was evaluated under heating (40° C., 60° C.), light illumination (4500 Lux), high humidity (RH 75%, RH 90%) conditions with a period of 20 days.
Example 11: the crystal form B of the monohydrochloride salt of the compound represented by formula (I) (example 8) was spread and uncovered, and the stability of the sample was evaluated under heating (40° C., 60° C.), light illumination (4500 Lux), high humidity (RH 75%, RH 90%) conditions with a period of 20 days.
Example 12: the crystal form C of the monohydrochloride salt of the compound represented by formula (I) (example 9) was spread and uncovered, and the stability of the sample was evaluated under heating (40° C., 60° C.), light illumination (4500 Lux), high humidity (RH 75%, RH 90%) conditions with a period of 20 days.

[1] = light illumination (4500 Lux), 4 days
[2] = light illumination (4500 Lux), 10 days
[3] = light illumination (4500 Lux), 20 days
[4] = 40° C., 60° C., 75% RH, 90% RH, 20 days

## CCCCOc1nc(N)c2cnn(Cc3ccc(CN4CCCC4)cc3)c2n1.Cl [crystal form A, 6-butoxy-1-(4-(pyrrolidin-1-ylmethyl)benzyl)-1H-pyrazolo[3,4-d]pyrimidin-4-amine monohydrochloride]
0 day
  Maximum single impurity: 0.09%
  Purity: 99.74%
  Total impurities: 0.26%
40° C., 4 days
  Maximum single impurity: 0.09%
  Purity: 99.72%
  Total impurities: 0.28%
40° C., 10 days
  Maximum single impurity: 0.06%
  Purity: 99.72%
  Total impurities: 0.28%
40° C., 20 days
  Maximum single impurity: 0.06%
  Purity: 99.70%
  Total impurities: 0.30%
60° C., 4 days
  Maximum single impurity: 0.08%
  Purity: 99.72%
  Total impurities: 0.28%
60° C., 10 days
  Maximum single impurity: 0.06%
  Purity: 99.75%
  Total impurities: 0.25%
60° C., 20 days
  Maximum single impurity: 0.06%
  Purity: 99.70%
  Total impurities: 0.30%
75% RH, 4 days
  Maximum single impurity: 0.09%
  Purity: 99.72%
  Total impurities: 0.28%
75% RH, 10 days
  Maximum single impurity: 0.06%
  Purity: 99.74%
  Total impurities: 0.26%
75% RH, 20 days
  Maximum single impurity: 0.08%
  Purity: 99.68%
  Total impurities: 0.32%
90% RH, 4 days
  Maximum single impurity: 0.08%
  Purity: 99.72%
  Total impurities: 0.28%
90% RH, 10 days
  Maximum single impurity: 0.06%
  Purity: 99.76%
  Total impurities: 0.24%
90% RH, 20 days
  Maximum single impurity: 0.08%
  Purity: 99.72%
  Total impurities: 0.28%
[1]
  Maximum single impurity: 0.09%
  Purity: 99.70%
  Total impurities: 0.30%
[2]
  Maximum single impurity: 0.06%
  Purity: 99.75%
  Total impurities: 0.25%
[3]
  Maximum single impurity: 0.08%
  Purity: 99.63%
  Total impurities: 0.37%
[4]
  stability under the influencing factor conditions (in words): good

## CCCCOc1nc(N)c2cnn(Cc3ccc(CN4CCCC4)cc3)c2n1.Cl [crystal form C, 6-butoxy-1-(4-(pyrrolidin-1-ylmethyl)benzyl)-1H-pyrazolo[3,4-d]pyrimidin-4-amine monohydrochloride]
0 day
  Maximum single impurity: 0.10%
  Purity: 99.55%
  Total impurities: 0.45%
40° C., 4 days
  Maximum single impurity: 0.10%
  Purity: 99.55%
  Total impurities: 0.45%
40° C., 10 days
  Maximum single impurity: 0.10%
  Purity: 99.60%
  Total impurities: 0.40%
40° C., 20 days
  Maximum single impurity: 0.10%
  Purity: 99.53%
  Total impurities: 0.47%
60° C., 4 days
  Maximum single impurity: 0.10%
  Purity: 99.50%
  Total impurities: 0.50%
60° C., 10 days
  Maximum single impurity: 0.10%
  Purity: 99.58%
  Total impurities: 0.42%
60° C., 20 days
  Maximum single impurity: 0.13%
  Purity: 99.42%
  Total impurities: 0.58%
75% RH, 4 days
  Maximum single impurity: 0.11%
  Purity: 99.55%
  Total impurities: 0.45%
75% RH, 10 days
  Maximum single impurity: 0.09%
  Purity: 99.61%
  Total impurities: 0.39%
75% RH, 20 days
  Maximum single impurity: 0.10%
  Purity: 99.57%
  Total impurities: 0.43%
90% RH, 4 days
  Maximum single impurity: 0.11%
  Purity: 99.51%
  Total impurities: 0.49%
90% RH, 10 days
  Maximum single impurity: 0.10%
  Purity: 99.61%
  Total impurities: 0.39%
90% RH, 20 days
  Maximum single impurity: 0.10%
  Purity: 99.58%
  Total impurities: 0.42%
[1]
  Maximum single impurity: 0.11%
  Purity: 99.57%
  Total impurities: 0.43%
[2]
  Maximum single impurity: 0.09%
  Purity: 99.64%
  Total impurities: 0.36%
[3]
  Maximum single impurity: 0.10%
  Purity: 99.54%
  Total impurities: 0.46%
[4]
  stability under the influencing factor conditions (in words): good

## CCCCOc1nc(N)c2cnn(Cc3ccc(CN4CCCC4)cc3)c2n1.Cl [crystal form B, 6-butoxy-1-(4-(pyrrolidin-1-ylmethyl)benzyl)-1H-pyrazolo[3,4-d]pyrimidin-4-amine monohydrochloride]
0 day
  Maximum single impurity: 0.10%
  Purity: 99.54%
  Total impurities: 0.46%
40° C., 4 days
  Maximum single impurity: 0.19%
  Purity: 99.31%
  Total impurities: 0.69%
40° C., 10 days
  Maximum single impurity: 0.10%
  Purity: 99.53%
  Total impurities: 0.47%
40° C., 20 days
  Maximum single impurity: 0.14%
  Purity: 99.39%
  Total impurities: 0.61%
60° C., 4 days
  Maximum single impurity: 0.14%
  Purity: 99.34%
  Total impurities: 0.66%
60° C., 10 days
  Maximum single impurity: 0.10%
  Purity: 99.42%
  Total impurities: 0.58%
60° C., 20 days
  Maximum single impurity: 0.10%
  Purity: 99.21%
  Total impurities: 0.79%
75% RH, 4 days
  Maximum single impurity: 0.11%
  Purity: 99.54%
  Total impurities: 0.46%
75% RH, 10 days
  Maximum single impurity: 0.10%
  Purity: 99.61%
  Total impurities: 0.39%
75% RH, 20 days
  Maximum single impurity: 0.10%
  Purity: 99.57%
  Total impurities: 0.43%
90% RH, 4 days
  Maximum single impurity: 0.10%
  Purity: 99.54%
  Total impurities: 0.46%
90% RH, 10 days
  Maximum single impurity: 0.10%
  Purity: 99.61%
  Total impurities: 0.39%
90% RH, 20 days
  Maximum single impurity: 0.10%
  Purity: 99.59%
  Total impurities: 0.41%
[1]
  Maximum single impurity: 0.10%
  Purity: 99.51%
  Total impurities: 0.49%
[2]
  Maximum single impurity: 0.10%
  Purity: 99.56%
  Total impurities: 0.44%
[3]
  Maximum single impurity: 0.11%
  Purity: 99.45%
  Total impurities: 0.55%
[4]
  stability under the influencing factor conditions (in words): good
